Assay [1] has as its system erythroid cells generated from human CD34+ hematopoietic stem cells. In words: Three-stage erythroid culture; maturation-phase (third) medium supplemented; FACS-based cell counting. As to the method: The effect of hypotaurine alone or in combination with myo-inositol on erythroid progenitor cell cultures was examined. Human CD34^+ hematopoietic stem cells (HSCs) were cultured in a three-stage process to generate enucleated erythroid cells. In the first stage, the CD34^+ HSCs were expanded in a T-flask in a first culture medium containing IMDM supplemented recombinant human insulin, recombinant human transferrin, recombinant human SCF, recombinant IL-3, recombinant Flt-3 ligand, and recombinant human IL-3. Subsequently, cells were transduced with a lentiviral vector encoding phenylalanine ammonia lyase. After transduction, cells were cultured in a 50 L bioreactor culture vessel containing a second culture medium containing IMDM, supplemented with recombinant human erythropoietin, recombinant human SCF, recombinant human IL3, recombinant human insulin, dexamethasone, and recombinant human transferrin. For the third stage of the process (maturation phase), an aliquot of cells was seeded into 24 well plate containing a third culture medium containing IMDM supplemented with recombinant human EPO, recombinant human SCF, recombinant human insulin, recombinant transferrin, human AB serum, and human plasma.
[…] Of note, the first, second and third culture media included a basal media (i.e., IMDM) including 0.0072 g/L of myo-inositol. Periodic sampling and cell counting was performed during the third stage using a fluorescence-activated cell sorting-based cell counter.

For assay [2], the system named is erythroid progenitor cells. The assay is described as follows: Total cell density over time in cultures of erythroid progenitor cells (FIG. 1). As to conditions: culture medium including the substance during maturation; compared to methods without it. In kind it is cell-based.
For assay [3], the system named is erythroid progenitor cells. The assay is described as follows: Enucleated erythroid cell density over time in cultures of erythroid progenitor cells (FIG. 2). Format: cell-based. Particulars: culture medium including the substance during maturation; compared to methods without it.
Setting [4] is: third culture media supplemented with taurine, compared to control culture conditions (data not shown).

Take `NCCS(=O)(=O)O` [taurine]: in assay [1] (setting [4]), the “enucleated erythroid cell density” value was “significant increase” and the “total cell density of erythroid cells” value is “significant increase”. For the same molecule, the cell proliferation entry in assay [2] is given as “increased”. In assay [3], the “number of enucleated erythroid cells” value is on record as “increased” and the rate of enucleation result is given as “increased”.
Consider `NCCS(=O)O` [hypotaurine], for which the “total cell density of erythroid cells” value in assay [1] (1.0 g/L hypotaurine in third culture medium, 24 well plate, compared to control culture conditions (FIG. 1)) is listed as “significantly increase”. In addition, in assay [1] (1.0 g/L hypotaurine in third culture medium, 24 well plate, compared to control culture conditions (FIG. 2)), the “enucleated erythroid cell density” value is reported as “significantly increase”. In addition, the cell proliferation entry in assay [2] is listed as “increased”. In addition, in assay [3], the “number of enucleated erythroid cells” value is reported as “increased” and the rate of enucleation result is “increased”.
